Test results: paper PMC12303080, “Diverse actions of 15 structurally unrelated mitochondrial uncouplers in cells and mice” (Molecular Metabolism, 2025)
Like-named read-outs stand apart in the source and are kept apart here. One block for each compound: values may come before it.

Experiments:
CHO–K1 cells [1] = assay: Seahorse XF-96 OCR dose response of 15 uncouplers (Figure 2); format: cell-based, Cricetulus griseus; conditions: CHO–K1; for MaxOCR: 0.32–200 μM, first 24 min post injection; for MaxOCR lower than that seen with BAM15: Figure 2; for Concentration range with sustained enhanced OCR (OCR ≥ 150% basal): tested 0.32–200 μM; for EC50: mean OCR (% basal) over first 24 min post injection, ± standard error, four-parameter fit, read-out: EC50 (increase of OCR)
Procedure: (§1) Stock solutions of the uncouplers and/or Rotenone/Antimycin A were diluted in Seahorse media to give the final concentration indicated in Figure 1, Figure 2, Figure 3 with 0.4% (v/v) DMSO in wells.

isolated rat hepatocytes = system: isolated rat hepatocytes; parameters: method as in PMID 12150871, PMID 31297293; conditions: read-out: EC50, inhibiting oxygen consumption; cited from earlier work
CHO–K1 cells [2] = assay: OCR in the absence or presence of oligomycin (Supplementary Fig. 6); format: cell-based, Cricetulus griseus; conditions: 1 μM oligomycin; for Effect of oligomycin on uncoupler-stimulated OCR: uncoupler at lowest concentration yielding MaxOCR
Procedure: ATP synthase is the major conduit through which protons re-enter the mitochondrial matrix. Thus, we sought to investigate whether the selected uncouplers could stimulate oxygen consumption in the presence of the ATP synthase inhibitor oligomycin.
Supplementary Figure 6. […] At ~24 minutes, 1 μM of oligomycin or vehicle was injected, followed by the injection of the indicated uncoupler or vehicle at ~44 minutes, and 0.5 μM Rotenone / Antimycin A at ~88 minutes.

rats [3] = system: rats; parameters: method as in PMID 3889119; conditions: cited from earlier work
[4] = system: CDAA/c mouse model of NASH; parameters: method as in earlier work; conditions: cited from earlier work
db/db mice = assay: Four-week treatment by admixture in chow, metabolic phenotyping; conditions: 4 weeks; for Body weight / weight gain vs db/db controls: 0.15% BAM15, 0.02% OPC-163493, 0.015% and 0.03% ES9, NTZ and NEN both doses; for Body weight, food intake, or metabolic tissue weights vs control: 0.25% NEN, 0.2% NTZ, 0.01% and 0.02% OPC-163493; for Blood glucose, HbA1c, glucose tolerance vs control / Overall metabolic phenotype vs db/db control (Figure 8, words): NEN both doses; for Blood glucose, HbA1c, glucose tolerance vs control: 0.01% OPC, 0.015% ES9, 0.2% NTZ; for Overall metabolic phenotype vs db/db control (Figure 8, words): OPC-163493 both doses, NTZ 0.2%; for Liver mass vs db/db control: both doses of BAM15, low dose NEN; for Daily food intake: both doses of BAM15, low dose of NEN, high dose of NTZ
Procedure: Body weight and glucose tolerance of male db/+ and db/db mice was assessed at 8–9 weeks of age to obtain baseline measurements. Db/+ were used as lean metabolically healthy controls and given ad libitum access to chow diet. Db/db mice were stratified into 12 groups using R (V4.4.0).
Mice were on treatment for a period of four weeks, during which body weight and food intake were measured daily. […] To counter this, food traps were placed beneath hoppers and leftover food in both the traps and hoppers was weighed daily. HbA1c was measured weekly. At the end of the treatment period, a glucose tolerance test was conducted, with fed and fasted bloods collected. At termination, blood was collected via cardiac puncture under isoflurane anaesthesia. Mice were euthanised by cervical dislocation and harvested tissues were flash-frozen in liquid nitrogen and stored at −80 °C.
Mice were fasted for 6 h and then received intraperitoneal injections of 20% (w/v) dextrose at a dose of 1 g/kg lean body mass. Blood glucose (BG) was measured at the time of fasting (random-fed BG) and then again prior to the commencement of the GTT following the 6-hour daytime fast (fasted BG). […] The rate of glucose clearance was measured using the trapezoidal method for calculation of area under the curve.
HbA1c was measured once weekly using an A1cNow + Portable HbA1c Test Kit. […] HbA1c was measured in the random-fed state.
A glucose tolerance test was conducted at the end of the treatment period, with random fed and 6-hour fasted bloods collected. Blood was collected in heparin tubes and kept on ice prior to centrifugation at 2000×g for 10 min at 4 °C to extract plasma. Plasma insulin concentration was determined using the Crystal Chem Ultra-Sensitive Mouse Insulin ELISA kit, according to manufacturers' instructions for the high range (1–64 ng/mL) assay.

rats [5] = assay: NTZ toxicology study in rats (literature); format: in vivo; conditions: worked out from rat dose
SARS-CoV-2 = system: SARS-CoV-2; parameters: method as in PMID 35237748; conditions: two 300 mg extended release tablets; placebo […]; cited from earlier work
[6] = in vivo; cited from earlier work
HeLa cells = conditions: 0.5–50 μM
Procedure: as §1
(§2) The dashed line indicates basal respiration, defined as the mean OCR over the first 24 minutes of the assay. Error bars show SEM, n = 3 per condition from three separate experiments.

HEK-293T cells = conditions: HEK293T; 0.5–50 μM
Procedure: as §1, §2

CHO–K1 cells [7] = conditions: 0.5–50 μM, BAM15 at 5 μM, FCCP at 1 μM
Procedure: as §1

RAW 264.7 cells = conditions: 0.5–50 μM
Procedure: as §1, §2

rat hepatocytes = system: rat hepatocytes; parameters: method as in PMID 15037196, PMID 8726330; conditions: cited from earlier work
[8] = Terminal plasma drug concentration by LC-MS/MS; format: in vivo; conditions: db/db mice, study endpoint; TIZ row: mice fed 0.2% NTZ
Procedure: LC-MS/MS was performed using a Shimadzu Prominence LCMS-8030 as previously described.
Figure 7 Plasma drug concentration and markers of tissue damage in db/db mice at study endpoint. Plasma was collected via cardiac puncture at time of euthanasia. A–E) Terminal plasma drug concentration was measured by LC-MS/MS. F–I) Terminal plasma concentration of liver function indicators (ALT, AST and GLDH) and kidney function indicator (urea). Graphs show mean ± SEM, n = 6–9 per group for plasma drug concentration measurement. Due to the limited volume of samples, not all liver and kidney function tests could be performed for all mice.

[9] = system: Zucker diabetic fatty rats, Akita mice, and Otsuka Long-Evans Tokushima Fatty rats; parameters: method as in PMID 31092829; conditions: decreased HbA1c and lowered fasting blood glucose; cited from earlier work
[10] = Drug exposure / pharmacokinetics after oral gavage; conditions: male, C57BL/6J, mouse, plasma, 10 mg/kg
[11] = Cricetulus griseus, CHO-K1, 0.4 h

Compound: Cc1c2ccncc2c(C)c2c1[nH]c1ccccc12 [ELL, Ellipticine]
- Concentration at which OCR increased above basal levels (CHO–K1 cells [1]): > 100 µM
- MaxOCR (CHO–K1 cells [1]): ~122 % of basal

Compound: CC(C)(C)c1cc(C=C(C#N)C#N)cc(C(C)(C)C)c1O [TyrA9, Tyrphostin A9]
- MaxOCR lower than that seen with BAM15 (CHO–K1 cells [1]): ~140%
- Concentration range with sustained enhanced OCR (OCR ≥ 150% basal) (CHO–K1 cells [1]): ≤ 100 µM
- EC50 (CHO–K1 cells [1]; [11]): 0.01 µM
- EC50 (isolated rat hepatocytes): 78 µM
- Effect of oligomycin on uncoupler-stimulated OCR (CHO–K1 cells [2]): largely unaffected by the presence of oligomycin

Compound: FC(F)(F)c1nc2c(Cl)c(Cl)c(Cl)c(Cl)c2[nH]1 [TTFB, 4,5,6,7-Tetrachloro-2-trifluoromethylbenzimidazole]
- MaxOCR (CHO–K1 cells [1]): 280 % of basal
- Concentration inducing decline in OCR to sub-basal levels (CHO–K1 cells [1]; first 24 min): 200 µM
- EC50 (CHO–K1 cells [1]; [11]): 0.52 µM
- Effect of oligomycin on uncoupler-stimulated OCR (CHO–K1 cells [2]): largely unaffected by the presence of oligomycin

Compound: CC(=O)Oc1ccccc1C(=O)Nc1ncc([N+](=O)[O-])s1 [NTZ, Nitazoxanide]
- Doses with increased salivation and lethargy, increased liver and spleen size (rats [3]): ≥ 450 mg/kg/day
- Decrease in liver fibrosis ([4]; 100 mg/kg/day): 32%
- Decrease in liver fibrosis ([4]; co-administered with Elafibranor): 60%
- Body weight / weight gain vs db/db controls (db/db mice): little impact on body weight
- Body weight, food intake, or metabolic tissue weights vs control (db/db mice): not significantly different
- Gonadal fat less than control group (db/db mice; 0.4% in chow): 26%
- Post-treatment GTT AUC lower than control group (db/db mice; 0.4% in chow): ~29%
- Blood glucose, HbA1c, glucose tolerance vs control (db/db mice): did not have significantly lower random-fed or 6-hour fasted blood glucose
- Overall metabolic phenotype vs db/db control (Figure 8, words) (db/db mice): no statistically significant phenotype
- Liver mass vs db/db control (db/db mice; high dose NTZ): statistically decreased liver mass
- Daily food intake (db/db mice): restored normal food intake
- HbA1c (db/db mice; both doses of BAM15, printed 0.3% ES9, 0.4% NTZ): lowered HbA1c levels
- Fasting and random fed blood glucose (db/db mice; either dose of BAM15, high dose ES9, high dose NTZ): partial efficacy
- Increase of liver cholesterol concentration vs db/db control (db/db mice; high dose NTZ (0.4%)): ~1.7 fold
- Increase of liver cholesterol concentration vs db/db control (db/db mice; low dose NTZ (0.2%)): ~1.5 fold
- Mouse equivalent dose of the rat adverse effect dose (rats [5]): ~900 mg/kg/day
- EC50 (CHO–K1 cells [1]; [11]): 2.32 ± 0.46 µM
- Patients progressed to severe disease (SARS-CoV-2): 0.5%

Compound: semaglutide
- Loss of lean mass [6]: up to 40 % of total weight lost

Compound: liraglutide
- Loss of lean mass [6]: up to 60 % of total weight lost

Compound: O=C(Nc1cc(Cl)cc(Cl)c1)Nc1cc(Cl)cc(Cl)c1 [SR4, 1,3-bis(3,5-dichlorophenyl)urea]
- Concentration at which OCR increased above basal levels (CHO–K1 cells [1]): 200 µM
- MaxOCR (CHO–K1 cells [1]): ~117 % of basal

Compound: O=C(Nc1ccc([N+](=O)[O-])cc1Cl)c1cc(Cl)ccc1O [NEN, Niclosamide ethanolamine]
- Body weight / weight gain vs db/db controls (db/db mice): little impact on body weight
- Body weight, food intake, or metabolic tissue weights vs control (db/db mice): not significantly different
- Blood glucose, HbA1c, glucose tolerance vs control (db/db mice): did not have significantly lower random-fed or 6-hour fasted blood glucose
- Overall metabolic phenotype vs db/db control (Figure 8, words) (db/db mice): no significant changes compared to the db/db control except lower liver weight
- Liver mass vs db/db control (db/db mice; high dose NTZ): statistically decreased liver mass
- Daily food intake (db/db mice): restored normal food intake
- MaxOCR lower than that seen with BAM15 (CHO–K1 cells [1]): ~25%
- Concentration range with sustained enhanced OCR (OCR ≥ 150% basal) (CHO–K1 cells [1]): 0.32 µM
- EC50 (CHO–K1 cells [1]; [11]): 0.09 µM
- Effect of oligomycin on uncoupler-stimulated OCR (CHO–K1 cells [2]): largely unaffected by the presence of oligomycin

Compound: N#CC(C#N)=NNc1ccc(OC(F)(F)F)cc1 [FCCP, Carbonyl cyanide p-trifluoromethoxyphenylhydrazone]
- Stimulation of OCR (HeLa cells): failed to stimulate OCR above basal levels
- Stimulation of OCR (HEK-293T cells): failed to stimulate OCR above basal levels
- MaxOCR (CHO–K1 cells [1]): 260 % of basal
- EC50 (CHO–K1 cells [1]; [11]): 0.31 µM
- MaxOCR (CHO–K1 cells [7]): ~260 % basal
- Stimulation of OCR (RAW 264.7 cells): failed to stimulate OCR above basal levels
- Effect of oligomycin on uncoupler-stimulated OCR (CHO–K1 cells [2]): largely unaffected by the presence of oligomycin

Compound: CCCCCCCCCCCC[P+](c1ccccc1)(c1ccccc1)c1ccccc1 [C12TPP, Dodecyl-triphenylphosphonium]
- Concentration giving max efficacy / MaxOCR (CHO–K1 cells [1]): 3.16 µM
- MaxOCR (CHO–K1 cells [1]): ~178 % of basal
- OCR at higher doses (CHO–K1 cells [1]; doses above 3.16 μM): ~18 % of baseline
- EC50 (CHO–K1 cells [1]; Cricetulus griseus, 0.4 h): 1.02 ± 0.98 µM
- Higher OCR in the presence of oligomycin (CHO–K1 cells [2]; initially): ~60%
- Effect of oligomycin on uncoupler-stimulated OCR (CHO–K1 cells [2]): largely unaffected by the presence of oligomycin

Compound: CC(=O)C1=C(O)C=C2Oc3c(C(C)=O)c(O)c(C)c(O)c3[C@@]2(C)C1=O [UsAc, (+)-usnic acid]
- Concentrations acutely toxic (rat hepatocytes): (+)-usnic acid (UsAc) • UsAc has not been tested in mouse models of metabolic disease. Concentrations of 2–5 μM UsAc are acutely toxic to rat hepatocytes [84, 85]. • UsAc is found in the unregulated weight-loss supplement LipoKinetix [86].
- OCR at 31.6 μM (CHO–K1 cells [1]): ~125 % basal
- Concentration inducing decline in OCR to sub-basal levels (CHO–K1 cells [1]; after ∼40 min of treatment): over 31.6 μM
- EC50 (CHO–K1 cells [1]; Cricetulus griseus, 0.4 h): 0.43 ± 0.12 µM
- Effect of oligomycin on uncoupler-stimulated OCR (CHO–K1 cells [2]): largely unaffected by the presence of oligomycin

Compound: CNC(=O)c1cc(Oc2ccc(NC(=O)Nc3ccc(Cl)c(C(F)(F)F)c3)cc2)ccn1 [Sorafenib, 4-[4-({[4-chloro-3 (trifluoromethyl)phenyl]carbamoyl}amino)phenoxy]-N-methylpyridine-2-carboxamide]
- Uncoupling activity (CHO–K1 cells [1]; tested concentration range, 120-minute assay): did not have any uncoupling activity

Compound: O=C(Nc1ncc([N+](=O)[O-])s1)c1ccccc1O [TIZ, tizoxanide]
- Terminal plasma drug concentration vs in vitro uncoupling range [8]: lower than the concentration at which oxygen consumption rate was enhanced in vitro

Compound: COc1cc(C(=O)OCC=C(C)C)nc2c(OCC=C(C)C)cccc12 [Ppc-1, Polysphondylium pseudo-candidum-1]
- OCR at 31.6 μM (CHO–K1 cells [1]): ~130 % basal
- Concentration inducing decline in OCR to sub-basal levels (CHO–K1 cells [1]; after ∼40 min of treatment): over 31.6 μM
- EC50 (CHO–K1 cells [1]; [11]): 13.5 ± 7.14 µM

- Cmax [10]: 30.9 µM
Compound: Cc1sc(-c2ccc(C(F)(F)F)cc2)nc1-c1nn[nH]c1C#N [OPC-163493, 4-(5-methyl-2-(4-(trifluoromethyl)phenyl)thiazol-4-yl)-1H-1,2,3-triazole-5-carbonitrile]
- Body weight / weight gain vs db/db controls (db/db mice): non-significant trend for lower body weight
- Body weight, food intake, or metabolic tissue weights vs control (db/db mice): not significantly different
- Blood glucose, HbA1c, glucose tolerance vs control (db/db mice): did not have significantly lower random-fed or 6-hour fasted blood glucose
- Overall metabolic phenotype vs db/db control (Figure 8, words) (db/db mice): No statistically significant changes
- Doses with significant anti-diabetic effects (as low as) [9]: ≥ 2 mg/kg/day
- Concentration giving max efficacy / MaxOCR (CHO–K1 cells [1]): 10 µM
- MaxOCR lower than that seen with BAM15 (CHO–K1 cells [1]): ~22%
- EC50 (CHO–K1 cells [1]): 1 µM
- EC50 (CHO–K1 cells [1]; [11]): 1.01 ± 1.2 µM
- Effect of oligomycin on uncoupler-stimulated OCR (CHO–K1 cells [2]): largely unaffected by the presence of oligomycin
